The record followed here is publication PMC12498411, “Antidepressant-like Properties of a Selenium-Containing Pyridinium Salt Explored through In Vitro, In Vivo, and In Silico Approaches” (ACS Chemical Neuroscience, 2025).

One may read the IC50 as the concentration that gives 50% inhibition.

Molecules are shown by their SMILES. Like-named read-outs stand apart in the source and are kept apart here. A value given as a limit tells only on which side of the number the result lay.

For data set [1], the target named is T1, MAO-A (Mus musculus, UniProt Q64133).
T1 construct: Mitochondria-enriched brain preparations were obtained in accordance with established methodology outlined in literature; from tissue; host or cells: mouse brain, mitochondria-enriched fraction
T1 sequence (Q64133 1-526): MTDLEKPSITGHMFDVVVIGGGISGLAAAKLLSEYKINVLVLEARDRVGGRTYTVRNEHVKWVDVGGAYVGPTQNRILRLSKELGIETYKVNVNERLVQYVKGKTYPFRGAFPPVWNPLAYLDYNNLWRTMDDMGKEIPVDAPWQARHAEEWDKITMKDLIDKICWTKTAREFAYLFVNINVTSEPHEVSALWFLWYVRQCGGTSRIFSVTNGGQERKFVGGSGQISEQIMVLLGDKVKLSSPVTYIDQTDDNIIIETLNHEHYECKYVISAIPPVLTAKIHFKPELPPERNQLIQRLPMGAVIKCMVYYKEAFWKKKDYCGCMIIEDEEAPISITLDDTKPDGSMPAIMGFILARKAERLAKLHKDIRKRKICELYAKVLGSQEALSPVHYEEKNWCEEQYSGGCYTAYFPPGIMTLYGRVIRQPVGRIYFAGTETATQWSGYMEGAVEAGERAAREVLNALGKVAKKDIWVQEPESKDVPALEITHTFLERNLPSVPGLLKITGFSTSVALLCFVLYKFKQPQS
Kind of data set: Cerebral MAO-A activity, mitochondria-enriched mouse brain fraction (kynuramine, fluorimetric). It is filed as biochemical. The following applies: for Concentrations with significant inhibition of MAO-A activity: tested 25–200 μM, Dunnett vs control. The protocol:
Mitochondria-enriched brain preparations were obtained in accordance with established methodology outlined in literature. The homogenate was prepared using the mouse brain tissue and a homogenization buffer (Na2PO4/KH2PO4/sucrose) at a ratio of 1:4 (w/v). The homogenate was centrifuged at 900g at 4 °C for 5 min. The resulting supernatant was separated and subjected to centrifugation at 12,500g for 15 min. The resulting pellet was resuspended in the homogenization buffer and subjected to a further round of centrifugation under identical conditions. Finally, the mitochondrial pellet obtained was reconstituted in an assay buffer solution (Na2PO4/KH2PO4/KCl). Protein concentration was estimated using the Bradford method and standardized as 1 mg/mL for the experiments.
MAO activity was assessed following the method outlined by Krajl, with some modifications by Matsumoto. Briefly, a 100 μL aliquot of the mitochondria-rich fraction was incubated at 37 °C for 5 min with specific MAO inhibitors: clorgyline (250 nM, a MAO-A inhibitor), or pargyline (250 nM, a MAO-B inhibitor). Then, 10 μL of each compound was introduced at varying concentrations (25–200 μM). Water (10 μL) was used in the control tubes. Afterward, the substrate, 20 μL of kynuramine dihydrobromide, was added to achieve a final concentration of 90 μM for MAO-A and 60 μM for MAO-B. The samples were incubated at 37 °C for 30 min. The reaction was halted by the addition of 300 μL of 10% trichloroacetic acid (TCA). After centrifuging at 16,000g for 15 min, an aliquot of 800 μL of the supernatant was mixed with 1 mL of 1 M sodium hydroxide (NaOH). The samples were measured using a fluorimeter with excitation at 315 nm and emission at 380 nm.

For data set [2], the system named is cerebral lipid peroxidation. Kind of data set: TBARS assay, SNP-induced lipid peroxidation in brain homogenate. In kind it is biochemical, mouse. Particulars: mouse brain homogenate, SNP-induced. The protocol:
Brains from mice of both sexes were used for in vitro assays, each performed in duplicate across three independent experiments (n = 3), conducted on different days.
The brain tissues were homogenized in a 50 mM Tris-HCl buffer at pH 7.4, using a 1:10 ratio (w/v). The freshly prepared homogenate was then centrifuged at 900g for 10 min, yielding a low-speed supernatant (S1). Lipid peroxidation was evaluated using the TBARS method as previously described. Lipid peroxidation was induced by 0.3 mM SNP. A 100 μL aliquot of S1 was incubated for 1 h at 37 °C in the presence of the compounds 3A, 3B, and 3C at concentrations ranging from 25 to 500 μM, and SNP or water (to control). The color reaction was initiated by adding 500 μL of a 0.8% thiobarbituric acid (TBA) solution, followed by 200 μL of 8.1% sodium dodecyl sulfate (SDS) and 500 μL of acetic acid (pH 3.4). The reaction mixture was incubated at 95 °C for 1 h. The absorbance was measured using a spectrophotometer at a wavelength of 532 nm. Trolox (100 μM), an antioxidant analogous to vitamin E, served as a positive control. The results were reported as nmol TBARS per gram of tissue. A parallel TBARS experiment was also conducted using a standard alkyl aryl selenide (2-((phenylselanyl)-methyl)-pyridine), dissolved in DMSO at the same concentrations tested, ranging from 25 to 500 μM.

Data set [3] concerns female Swiss mice. Kind of data set: Acute oral toxicity, OECD Protocol 423 Acute Toxic Class Method. Particulars: for Food intake vs control: 50 mg/kg or 300 mg/kg; for Food intake vs control / Physical signs / Animal mortality: 14 days; for Plasma ALT activity / Plasma urea levels / Physical signs / Animal mortality: 50 and 300 mg/kg; for Physical signs / Animal mortality: gavage, female mice; for Animal mortality: single dose. It is filed as in vivo, mouse. The protocol:
The evaluation of the acute toxicity of compounds 3A and 3B via oral administration was conducted in female Swiss mice, following the guidelines outlines in Protocol 423–OECD. The acute oral toxicity study of compound 3C was previously conducted by our research group, showing low toxicity and therefore was not evaluated here.
The animals were divided into 3 experimental groups (n = 6 mice/group) for each dosage testing: (I) Control, (II) Compound 3A, and (III) Compound 3B. Both compounds (3A and 3B) were administered at a single dose of 50 or 300 mg/kg via gavage, while control animals received water (vehicle). This high dose (300 mg/kg) was fractionated into three oral administrations of 100 mg/kg at a volume of 10 mL/kg with an interval of 30 min each. Over a period of 14 days, water and food consumption were monitored. In addition, changes in body weight and behavioral parameters such as lethargy, piloerection, and diarrhea were observed. Following this evaluation period, locomotion and exploration of the animals were assessed using the OFT. Subsequently, the animals were euthanized by an overdose of isoflurane, and blood, brain, liver, and kidney samples were collected for ex vivo analysis.
Blood plasma was used to assess liver and kidney function markers by quantifying the activity of AST and ALT, as well as urea levels, using commercially available kits (LABTEST; BIOCLIN). The brain, liver and kidneys were employed to investigate potential oxidative damage to lipids as a toxicity parameter utilizing the TBARS technique.
The aim of this behavioral test is to assess the locomotion and exploration behavior of the animals using an open field apparatus measuring 30 cm × 30 cm × 15 cm, constructed from plywood with a floor divided into nine quadrants, facilitating free movement for the animals. During the OFT, the animals were positioned in the center of the apparatus and subjected to a 5 min testing period, following the protocol outlined in literature. The number of quadrant crossings and rearings was recorded and quantified during testing phase.

On to `O=C(C[n+]1ccccc1C[Se]c1ccccc1)c1ccccc1.[Br-]` [Compound 3A, 1-(2-oxo-2-phenylethyl)-2-((phenylselanyl)methyl)pyridin-1-ium bromide], for which, in data set [1], half-maximal inhibition (IC50) was put at 238 µM and the “Concentrations with significant inhibition of MAO-A activity” value was at least 50 µM. In addition, the IC50 in data set [2] came out at 150 µM. In data set [3] (50 mg/kg), the “Body weight at the last measurement (last day) vs control” value is “reduction in body weight”, the “Plasma AST activity” value is “did not affect AST activity” and the “Water consumption vs control” value was “decreased”. In data set [3], the “Food intake vs control” value is listed as “ate similar to the control group”, the “Plasma ALT activity” value is “remained unchanged”, the Plasma urea levels result is on record as “remained similar” and the Physical signs result is recorded as “did not indicate any observable changes”. In addition, the Animal mortality result in data set [3] is “no instances of animal mortality”. For the same compound, the “Water consumption vs control” value in data set [3] (300 mg/kg) is given as “no significant difference”.

With `Cc1ccc(C(=O)C[n+]2ccccc2C[Se]c2ccccc2)cc1` [Compound 3B, 1-(2-oxo-2-(p-tolyl)ethyl)-2-((phenylselanyl)methyl)pyridin-1-ium bromide], the IC50 in data set [1] (mouse brain mitochondria-rich fraction, 25–200 μM, kynuramine 90 μM, read-out: IC50 for MAO-A) was found to be 73.9 µM. For the same compound, the “Concentrations with significant inhibition of MAO-A activity” value in data set [1] was “all concentrations tested”. Besides, in data set [2], the IC50 was found to be 130 µM. In data set [3] (50 mg/kg), the “Body weight at the last measurement (last day) vs control” value is recorded as “did not differ significantly”, the “Ex vivo lipid peroxidation (TBARS) in liver” value is on record as “an increase in damage was observed” and the “Plasma AST activity” value was “did not affect AST activity”. In addition, in data set [3], the “Food intake vs control” value is “ate similar to the control group”, the “Plasma ALT activity” value is “remained unchanged”, the Plasma urea levels entry is reported as “remained similar” and the Physical signs result was “did not indicate any observable changes”. Besides, in data set [3], the Animal mortality result is reported as “no instances of animal mortality”. Moreover, in data set [3] (300 mg/kg), the “Ex vivo lipid peroxidation (TBARS) in liver” value is “not evident at the higher dose”, the “Plasma AST activity” value is “an increase was observed” and the “Water consumption vs control” value is on record as “no significant difference”.
